In US6096930A, “Herbicidal cyclohexane-1,3-dione derivatives and their preparation process” (Korea Research Institute of Chemical Technology, priority 1994, dated 2000):
Where two headings read alike, the source gives them in different places.

What was measured:
Assay in all cases: Herbicidal activity for paddy test
Assay type in all cases: in vivo
SAGPY = settings: for pest or weed control at 2 g/ha: 0.002 kg/ha; for pest or weed control at 8 g/ha: 0.008 kg/ha; for pest or weed control at 31 g/ha: 0.031 kg/ha; for pest or weed control at 125 g/ha: 0.125 kg/ha; for pest or weed control at 500 g/ha: 0.500 kg/ha
Description: (§1) The sterilized sandy loam soil is filled in test pot having a surface area of 348 cm^2 for upland test conditions or 115 cm^2 for paddy test species were planted in furrows.
(§2) The herbicidal activity data were taken visually by percent control, wherein 0 signifies no herbicidal effect and 100 signifies complete kill.

SCPJU = settings: for pest or weed control at 2 g/ha: 0.002 kg/ha; for pest or weed control at 8 g/ha: 0.008 kg/ha; for pest or weed control at 31 g/ha: 0.031 kg/ha; for pest or weed control at 125 g/ha: 0.125 kg/ha; for pest or weed control at 500 g/ha: 0.500 kg/ha
Description: as §1, §2

MOOVA = settings: for pest or weed control at 2 g/ha: 0.002 kg/ha; for pest or weed control at 8 g/ha: 0.008 kg/ha; for pest or weed control at 31 g/ha: 0.031 kg/ha; for pest or weed control at 125 g/ha: 0.125 kg/ha; for pest or weed control at 500 g/ha: 0.500 kg/ha
Description: as §1, §2

ORYSA = settings: for plant injury at 2 g/ha: 0.002 kg/ha; for plant injury at 8 g/ha: 0.008 kg/ha; for plant injury at 31 g/ha: 0.031 kg/ha; for plant injury at 125 g/ha: 0.125 kg/ha; for plant injury at 500 g/ha: 0.500 kg/ha
Description: as §1, §2

ECHOR = settings: for pest or weed control at 2 g/ha: 0.002 kg/ha; for pest or weed control at 8 g/ha: 0.008 kg/ha; for pest or weed control at 31 g/ha: 0.031 kg/ha; for pest or weed control at 125 g/ha: 0.125 kg/ha; for pest or weed control at 500 g/ha: 0.500 kg/ha
Description: as §1, §2

[1] = 3 Leaf, read-out: Herbicidal activity, ORYSA (3 Leaf)
[2] = seed, read-out: Herbicidal activity, ORYSA (seed)

Compound | pest or weed control at 2 g/ha (SAGPY) [%] | pest or weed control at 8 g/ha (SAGPY) [%] | pest or weed control at 31 g/ha (SAGPY) [%] | pest or weed control at 125 g/ha (SAGPY) [%] | pest or weed control at 500 g/ha (SAGPY) [%] | pest or weed control at 2 g/ha (SCPJU) [%] | pest or weed control at 8 g/ha (SCPJU) [%] | pest or weed control at 31 g/ha (SCPJU) [%] | pest or weed control at 125 g/ha (SCPJU) [%] | pest or weed control at 500 g/ha (SCPJU) [%] | pest or weed control at 2 g/ha (MOOVA) [%] | pest or weed control at 8 g/ha (MOOVA) [%] | pest or weed control at 31 g/ha (MOOVA) [%] | pest or weed control at 125 g/ha (MOOVA) [%] | pest or weed control at 500 g/ha (MOOVA) [%] | plant injury at 2 g/ha (ORYSA; [1]) [%] | plant injury at 8 g/ha (ORYSA; [1]) [%] | plant injury at 31 g/ha (ORYSA; [1]) [%] | plant injury at 125 g/ha (ORYSA; [1]) [%] | plant injury at 500 g/ha (ORYSA; [1]) [%] | other results
C=CCON=C(CC)C1=C(O)CC(c2c(C)c(C)c3c(c2C)CC(C)(C)C3)CC1=O (stereo not drawn) [Compound 3, 5-(2,2,4,6,7-Pentamethylindan-5-yl)-2-[1-(allyloxyimino)propyl]-3-hydroxycyclohex-2-en-1-one] | 0 | 0 | 0 | 0 | 0 | 0 | 0 | 0 | 0 | 0 | 0 | 0 | 0 | 0 | 0 | 0 | 0 | 0 | 10 | 100 | plant injury at 2 g/ha (ORYSA; [2]): 0%; plant injury at 8 g/ha (ORYSA; [2]): 10%; plant injury at 31 g/ha (ORYSA; [2]): 100%; plant injury at 125 g/ha (ORYSA; [2]): 100%; plant injury at 500 g/ha (ORYSA; [2]): 100%; pest or weed control at 2 g/ha (ECHOR): 0%; pest or weed control at 8 g/ha (ECHOR): 100%; pest or weed control at 31 g/ha (ECHOR): 100%; pest or weed control at 125 g/ha (ECHOR): 100%; pest or weed control at 500 g/ha (ECHOR): 100%
C=CCON=C(CC)C1=C(O)CC(c2c(C)c(C)c3c(c2C)CC(C)(CC)C3)CC1=O (stereo not drawn) [Compound 13, 5-(2-Ethyl-2,4,5,7-tetramethylindan-6-yl)-2-[1-(allyloxyimino)propyl]-3-hydroxycyclohex-2-en-1-one] | 0 | 0 | 0 | 30 | 30 | 0 | 0 | 0 | 0 | 0 | 0 | 0 | 0 | 0 | 30 | 0 | 0 | 0 | 0 | 30 | plant injury at 2 g/ha (ORYSA; [2]): 0%; plant injury at 8 g/ha (ORYSA; [2]): 30%; plant injury at 31 g/ha (ORYSA; [2]): 50%; plant injury at 125 g/ha (ORYSA; [2]): 100%; plant injury at 500 g/ha (ORYSA; [2]): 100%; pest or weed control at 2 g/ha (ECHOR): 30%; pest or weed control at 8 g/ha (ECHOR): 50%; pest or weed control at 31 g/ha (ECHOR): 100%; pest or weed control at 125 g/ha (ECHOR): 100%; pest or weed control at 500 g/ha (ECHOR): 100%
CCCC(=NOCC=CCl)C1=C(O)CC(c2c(C)c(C)c3c(c2C)CC(C)(C)C3)CC1=O (stereo not drawn) [Compound 9] | 0 | 0 | 0 | 0 | 0 | 0 | 0 | 0 | 0 | 0 | 0 | 0 | 0 | 0 | 0 | 0 | 0 | 0 | 0 | 0 | plant injury at 2 g/ha (ORYSA; [2]): 0%; plant injury at 8 g/ha (ORYSA; [2]): 0%; plant injury at 31 g/ha (ORYSA; [2]): 0%; plant injury at 125 g/ha (ORYSA; [2]): 70%; plant injury at 500 g/ha (ORYSA; [2]): 100%; pest or weed control at 2 g/ha (ECHOR): 0%; pest or weed control at 8 g/ha (ECHOR): 50%; pest or weed control at 31 g/ha (ECHOR): 100%; pest or weed control at 125 g/ha (ECHOR): 100%; pest or weed control at 500 g/ha (ECHOR): 100%
CCCC(=NOCC=CCl)C1=C(O)CC(c2c(C)c(C)c3c(c2C)CC(C)(CC)C3)CC1=O (stereo not drawn) [Compound 19] | 0 | 0 | 0 | 0 | 0 | 0 | 0 | 0 | 0 | 0 | 0 | 0 | 0 | 0 | 0 | 0 | 0 | 0 | 0 | 0 | plant injury at 2 g/ha (ORYSA; [2]): 0%; plant injury at 8 g/ha (ORYSA; [2]): 0%; plant injury at 31 g/ha (ORYSA; [2]): 0%; plant injury at 125 g/ha (ORYSA; [2]): 0%; plant injury at 500 g/ha (ORYSA; [2]): 30%; pest or weed control at 2 g/ha (ECHOR): 0%; pest or weed control at 8 g/ha (ECHOR): 50%; pest or weed control at 31 g/ha (ECHOR): 80%; pest or weed control at 125 g/ha (ECHOR): 100%; pest or weed control at 500 g/ha (ECHOR): 100%
CCCC(=NOC)C1=C(O)CC(c2c(C)c(C)c3c(c2Cl)CC(C)(C)C3)CC1=O (stereo not drawn) [Compound 42] | 0 | 0 | 0 | 0 | 0 | 0 | 0 | 0 | 0 | 0 | 0 | 0 | 0 | 0 | 0 | 0 | 0 | 0 | 0 | 0 | plant injury at 2 g/ha (ORYSA; [2]): 0%; plant injury at 8 g/ha (ORYSA; [2]): 0%; plant injury at 31 g/ha (ORYSA; [2]): 20%; plant injury at 125 g/ha (ORYSA; [2]): 100%; plant injury at 500 g/ha (ORYSA; [2]): 100%; pest or weed control at 2 g/ha (ECHOR): 0%; pest or weed control at 8 g/ha (ECHOR): 0%; pest or weed control at 31 g/ha (ECHOR): 80%; pest or weed control at 125 g/ha (ECHOR): 100%; pest or weed control at 500 g/ha (ECHOR): 100%
CCON=C(CC)C1=C(O)CC(c2c(C)c3c(c(C)c2Cl)CC(C)(C)C3)CC1=O (stereo not drawn) [Compound 22] | 0 | 0 | 0 | 0 | 0 | 0 | 0 | 0 | 0 | 0 | 0 | 0 | 0 | 0 | 60 | 0 | 0 | 0 | 20 | 100 | plant injury at 2 g/ha (ORYSA; [2]): 0%; plant injury at 8 g/ha (ORYSA; [2]): 0%; plant injury at 31 g/ha (ORYSA; [2]): 100%; plant injury at 125 g/ha (ORYSA; [2]): 100%; plant injury at 500 g/ha (ORYSA; [2]): 100%; pest or weed control at 2 g/ha (ECHOR): 0%; pest or weed control at 8 g/ha (ECHOR): 95%; pest or weed control at 31 g/ha (ECHOR): 100%; pest or weed control at 125 g/ha (ECHOR): 100%; pest or weed control at 500 g/ha (ECHOR): 100%
C=CCON=C(CCC)C1=C(O)CC(c2c(C)c3c(c(C)c2Cl)CC(C)(C)C3)CC1=O (stereo not drawn) [Compound 27] | 0 | 0 | 0 | 0 | 0 | 0 | 0 | 0 | 0 | 0 | 0 | 0 | 0 | 0 | 0 | 0 | 0 | 0 | 0 | 0 | plant injury at 2 g/ha (ORYSA; [2]): 0%; plant injury at 8 g/ha (ORYSA; [2]): 0%; plant injury at 31 g/ha (ORYSA; [2]): 0%; plant injury at 125 g/ha (ORYSA; [2]): 100%; plant injury at 500 g/ha (ORYSA; [2]): 100%; pest or weed control at 2 g/ha (ECHOR): 0%; pest or weed control at 8 g/ha (ECHOR): 0%; pest or weed control at 31 g/ha (ECHOR): 50%; pest or weed control at 125 g/ha (ECHOR): 100%; pest or weed control at 500 g/ha (ECHOR): 100%
